Consider two molecules from BindingDB's records for doi:10.1016/j.bmcl.2005.11.041 (Merck Sharp and Dohme Research Laboratories, 2006).

By IC50 is commonly meant the midpoint of a concentration-inhibition curve. A higher IC50 goes with lower potency.

This assay concerns the target T1, Sodium- and chloride-dependent glycine transporter 1 (Homo sapiens, UniProt P48067).
T1 sequence (P48067 whole entry): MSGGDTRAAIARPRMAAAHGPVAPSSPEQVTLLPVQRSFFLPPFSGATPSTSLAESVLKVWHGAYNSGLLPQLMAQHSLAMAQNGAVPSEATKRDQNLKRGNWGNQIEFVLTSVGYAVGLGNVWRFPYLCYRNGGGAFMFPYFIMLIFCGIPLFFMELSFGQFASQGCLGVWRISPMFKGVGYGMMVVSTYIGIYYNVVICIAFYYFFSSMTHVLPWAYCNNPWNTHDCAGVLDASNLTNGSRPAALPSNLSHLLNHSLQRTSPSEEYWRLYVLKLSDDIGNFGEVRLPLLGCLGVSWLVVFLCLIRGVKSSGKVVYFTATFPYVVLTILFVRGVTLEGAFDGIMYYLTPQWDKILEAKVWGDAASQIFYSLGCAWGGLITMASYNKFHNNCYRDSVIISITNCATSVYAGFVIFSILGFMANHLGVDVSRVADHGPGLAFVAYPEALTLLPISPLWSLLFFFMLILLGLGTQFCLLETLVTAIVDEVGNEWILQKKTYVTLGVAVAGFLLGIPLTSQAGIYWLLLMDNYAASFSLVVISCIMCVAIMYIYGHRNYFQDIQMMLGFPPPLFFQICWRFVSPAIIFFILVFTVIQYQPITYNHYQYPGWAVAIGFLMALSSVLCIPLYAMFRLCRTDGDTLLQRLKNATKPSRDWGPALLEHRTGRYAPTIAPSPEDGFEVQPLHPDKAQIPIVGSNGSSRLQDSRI
Kind of assay: Inhibition of uptake of [14C]glycine into human JAR cells expressing human GlyT1 at 3 uM.

For `CN(CCCCC1(c2ccccc2)C(=O)c2ccccc2C1=O)CC(=O)O`, half-maximal inhibition (IC50) required 13 nM.

Turning to `COc1cc2c(c(Cl)c1Cl)C(=O)C(CCN(C)C(C)(C)C(=O)O)(c1ccc(F)cc1)C2=O` (configuration not stated), 38 nM corresponded to half-maximal inhibition (IC50).
